Experimental data: patent US20090170880A1, “Methods and Means for the Treatment of Cancer” (priority 2007, published 2009)
Entries after “also recorded” stand apart in the source; their conditions may differ.

Legend:
[1] = system: intracranial Mel57-luc tumor xenografts; test: Efficacy against intracranial Mel57-luc tumor xenografts; format: in vivo, nude mice
Experimental: Intracranial Mel57-luc (luciferase transfected subline) tumor xenografts in wild-type nude mice (WT) and mdr1ab knockout nude mice (MDR) were established according to the protocol below (see Kemper et al, Eur J Cancer 42:3294-3303, 2006).
The Mel57 cell line (University Medical Centre, Nijmegen, The Netherlands) is a human melanoma cell line and was cultured in MEM (Life Technologies Inc., Breda, The Netherlands) supplemented with 10% foetal calf serum, non-essential amino acids, streptomycin, penicillin and sodium pyruvate (all Life Technologies), and incubated at 37° C. and 5% CO2 in humidified air. The cell line was further transfected by standard protocols with lipofectamine using a pBS vector containing a β-actin driven luciferase gene coupled via an internal ribosome […] to GFP. After expansion, GFP bright cells were sorted to single cells by FACS, expanded and sublines tested for luciferase expression by an in vitro bioluminescence assay (Promega, Benelux BV, Leiden, The Netherlands). Three to five sublines showing the highest luminescence activity were tested in vivo for tumour take and intracranial growth behaviour. To retrieve tumour cells for injection, the cell culture was trypsinised (trypsin 0.05%; EDTA 0.02%, Life Technologies), washed two times with Hanks Balanced Saline Solution (HBSS, Life Technologies Inc.), counted and resuspended in an appropriate volume of HBSS. The single cell suspension was kept on ice until injection. […]
Mel57-luc cells (100,000 cells/2 μl) were injected stereotactically in the brain as described in detail in Kemper et al^14. […] The amount of bioluminescence in each animal was calculated relative to the first measurement when therapy was initiated (arbitrarily set at 100%) and was log converted prior to data analysis. Tumor volume was measured by bioluminescence activity (see Kemper et al, Eur J Cancer 42:3294-3303, 2006).

[2] = biological target: T1, human BCRP (Homo sapiens, UniProt Q9UNQ0); test: Transwell transport of temozolomide, MDCK-BCRP cells; format: in vitro ADME; details: 40 μg/ml, MDCK-BCRP versus MDCK parent, zosuquidar 5 μM
T1 construct: expressed in transfected cells; host or cells: MDCK (canine kidney) cells transduced with human BCRP
T1 sequence (Q9UNQ0 1-655): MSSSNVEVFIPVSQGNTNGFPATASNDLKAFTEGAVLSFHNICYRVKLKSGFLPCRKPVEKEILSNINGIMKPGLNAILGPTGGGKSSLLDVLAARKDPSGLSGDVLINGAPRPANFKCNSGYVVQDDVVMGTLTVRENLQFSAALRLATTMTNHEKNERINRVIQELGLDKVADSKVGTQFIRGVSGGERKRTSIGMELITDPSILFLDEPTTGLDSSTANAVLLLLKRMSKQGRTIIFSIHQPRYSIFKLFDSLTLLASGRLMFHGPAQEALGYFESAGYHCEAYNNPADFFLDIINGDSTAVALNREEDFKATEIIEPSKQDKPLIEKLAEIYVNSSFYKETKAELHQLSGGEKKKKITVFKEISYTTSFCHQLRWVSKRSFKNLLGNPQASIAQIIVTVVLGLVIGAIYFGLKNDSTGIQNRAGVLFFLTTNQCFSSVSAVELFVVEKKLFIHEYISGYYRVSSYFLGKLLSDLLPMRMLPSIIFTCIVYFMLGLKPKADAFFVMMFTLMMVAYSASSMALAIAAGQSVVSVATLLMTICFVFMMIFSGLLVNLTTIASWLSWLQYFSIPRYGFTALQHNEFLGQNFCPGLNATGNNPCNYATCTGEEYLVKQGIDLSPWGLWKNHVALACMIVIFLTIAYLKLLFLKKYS
Experimental: (§1) The parental LLC pig-kidney (PK1) cell line and sublines transduced with murine Mdr1a or human MDR1 (12) and the parental Madine Darby Canine Kidney (MDCK) and murine Bcrp1 or human BCRP transduced sublines (13) were seeded on Transwell microporous polycarbonate membrane filters (3.0 μm pore size, 24 mm diameter; Costar Corning, N.Y., USA) at a density of 1×10^6 cells per well in 2 ml of MEM medium (Invitrogen Corporation, Carlsbad, Calif.) containing 10% v/v fetal calf serum. Cells were incubated at 37° C. in 5% CO2 for three days with one medium replacement after the first day. Two hours before the start of the experiment the medium in both compartments was replaced with 2 ml of OptiMEM medium (InVitrogen Corp.). At the start of the experiment the medium in the apical or basolateral compartment was replaced with 2 ml of freshly prepared OptiMEM medium containing 40 μg/ml of temozolomide. […] Zosuquidar (LY335979, 5 μM) was always added to the medium when doing experiments with MDCK cell lines to inhibit endogenous canine P-gp. Samples of 50 μl were collected every 30 min, for up to 2 h after start of the experiment. Because temozolomide is instable in medium at 37° C., we replaced one ml of the donor compartment by a freshly prepared aliquot every 30 min. […]

[3] = Transwell experiments, recovery of temozolomide in acceptor compartment; format: in vitro ADME; details: after 30 min, transport medium pH 7.4
Experimental: as §1

transport of temozolomide by human BCRP [2]: more moderate transport | transport of temozolomide by human BCRP ([2]; listed as Temozolomide): less | dose recovered in the acceptor compartment [3]: at least 5%
SMILES: Cn1nnc2c(C(N)=O)ncn2c1=O [temozolomide, 8-carbamoyl-3-methyl-[3H]-imidazo[5,1-d]-1,2,3,5-tetrazin-4-one]
response to temozolomide, P-gp (Mdr1ab) knockout versus wild-type nude mice ([1]; oral 100 mg/kg for 5 consecutive days, bioluminescence, 100 mg/kg): greater reduction in tumor volume; also recorded: respond better | difference in efficacy, Bcrp1/Mdr1ab knockout versus wild-type nude mice ([1]; oral 100 mg/kg/day×5 from day 7, bioluminescence): more pronounced
